“And” between values parts separate entries of the source, which are not always exact repeats. Equal entries are not always repeated.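 Results reflect a 48-hour exposure of cells in 96-well plates to compound at five concentrations. The concentration for 50% growth inhibition is given as GI50. Definition used: TGI = concentration required for complete inhibition of growth.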
Experiments:
Test in all cases: NCI anticancer screen, dose series, 48 h
NCI-H460 lung = test system: NCI-H460 lung
SF-295 CNS = test system: SF-295 CNS
A549 NSCLC = test system: A549 NSCLC
NCI-H23 lung = test system: NCI-H23 lung
OVCAR-4 ovarian = test system: OVCAR-4 ovarian
MDA-MB-435 = test system: MDA-MB-435
UO-31 renal = test system: UO-31 renal
RPMI-8226 leukemia = test system: RPMI-8226 leukemia
MCF7 breast = test system: MCF7 breast
K-562 leukemia = test system: K-562 leukemia

Row | Compound | GI50 (NCI-H460 lung) | TGI (NCI-H460 lung) | GI50 (SF-295 CNS) | TGI (SF-295 CNS) | GI50 (A549 NSCLC) | TGI (A549 NSCLC) | GI50 (NCI-H23 lung) | TGI (NCI-H23 lung) | GI50 (OVCAR-4 ovarian) | TGI (OVCAR-4 ovarian) | GI50 (MDA-MB-435) | TGI (MDA-MB-435) | GI50 (UO-31 renal) | TGI (UO-31 renal) | GI50 (RPMI-8226 leukemia) | TGI (RPMI-8226 leukemia) | GI50 (MCF7 breast) | TGI (MCF7 breast) | GI50 (K-562 leukemia) | TGI (K-562 leukemia) [µM]
1 | O=c1[nH]c2ccccc2cc1-c1nc2ccc(Cl)cc2[nH]1 | 2.61 µM | > 100 µM | 9.63 µM | > 100 µM | 5.15 µM | > 100 µM | 4.7 µM | > 100 µM | 5.09 µM | > 100 µM | 4.39 µM | > 100 µM | 3.31 µM | > 100 µM | 1.42 µM | 6.78 µM | 1.4 µM | > 100 µM | 3.85 µM | > 100
2 | Cc1cc(Cl)ccc1OCC(=O)Nc1nc2c(Cl)cccc2s1 | – | > 100 µM | 20.8 µM | > 100 µM | 16.7 µM | 42 µM | 73 µM | > 100 µM | 46.7 µM | > 100 µM | > 100 µM | > 100 µM | > 100 µM | > 100 µM | 18.7 µM | > 100 µM | 11.2 µM | 24 µM | 7.25 µM | > 100
3 | C=CC(=O)N1CCC(Oc2cc3c(Nc4ccc(Cl)c(Cl)c4F)ncnc3cc2OC)CC1 | 11.1 µM and 5.88 µM | 33.2 µM and > 10 µM | 3.78 µM and 2.21 µM | 17.3 µM and > 10 µM | 3.12 µM and 1.6 µM | 19.9 µM and > 10 µM | 4.52 µM and 3.18 µM | 21.7 µM and > 10 µM | 2.65 µM and 2.56 µM | 31.5 µM and > 10 µM | 2.23 µM and 1.8 µM | 8.3 µM and 4.7 µM | 0.0493 µM and 0.0566 µM | 4.75 µM and 3.72 µM | 6.49 µM and 3.93 µM | 42.6 µM and > 10 µM | 2.05 µM and 1.42 µM | 21.7 µM and > 10 µM | 3.98 µM and 2.68 µM | > 100
4 | Nc1n[nH]c2cccc(C#Cc3cccc(NC(=O)c4cccc(C(F)(F)F)c4)c3)c12 | 4.11 µM | 15.7 µM | 2.68 µM | 10.5 µM | 4.84 µM | 18.6 µM | 2.86 µM | 15.8 µM | 3.67 µM | 17.7 µM | 3.04 µM | 13.7 µM | 2.29 µM | 9.45 µM | 3.44 µM | 21.5 µM | 3 µM | 15.8 µM | 0.19 µM | 11.1
5 | COC(=O)c1ccc2[nH]c(O)c(C(=Nc3ccc(N(C)C(=O)CN4CCN(C)CC4)cc3)c3ccc4c(c3)OCO4)c2c1 | 0.902 µM | 2.65 µM | 0.754 µM | 2.16 µM | 1.09 µM | 4.12 µM | 0.612 µM | 2.85 µM | 0.761 µM | 2.72 µM | 0.724 µM | 2.19 µM | 1.3 µM | 3.71 µM | 0.655 µM | 2.83 µM | 0.327 µM | 1.8 µM | 0.056 µM | 6.16
6 | Cc1ccc(C)c(NC(=O)CC2Sc3ccccc3NC2=O)c1 (centres undefined) | 33.6 µM and > 74.1 µM | > 100 µM | – | > 100 µM | 24.9 µM and 70.8 µM | > 100 µM | 17.8 µM and 47.3 µM | 38.4 µM and > 96.2 µM | 14.8 µM and 31.3 µM | 24 µM and 57.7 µM | – | 85 µM and > 100 µM | 14.5 µM and 30 µM | 23 µM and 55.7 µM | – | > 100 µM | – | > 100 µM | – | > 100
